“Also recorded” adds a separate entry of the source.
Columns and labels:
[1] = system: HCC1569 cells; assay: Cell proliferation assay (CCK-8), HCC1569; format: cell-based; settings: CCNE1-amplified breast cancer cells, 5-day incubation, mean ± SD, n = 3
Experimental: (§1) HCC1569 and OVCAR3 cells (2 × 10^3/well) were seeded in 96-well plates and cultured for 24 h at 37 °C, 5% CO2. Compounds at varying concentrations were added, followed by 5-day incubation. Cell viability was assessed using Cell Counting Kit-8 (CCK-8) with absorbance measurement at 450 nm. HCC1569 (BNCC341698) was purchased from BNCC and OVCAR3 (CL-0178) was purchased from Procell.

[2] = system: HCC1569 cells; assay: Cell cycle assay (PI flow cytometry); format: cell-based
Experimental: HCC1569 cells (1 × 10^5/well) were seeded in 6-well plates and cultured for 24 h at 37 °C under 5% CO2. MY-14 at varying concentrations were added, followed by 5-day incubation. Cells were trypsinized, pelleted by centrifugation, and fixed with 70% ethanol. Subsequent staining was performed with propidium iodide (PI) and RNase A according to the Beyotime kit protocol. After 30 min incubation at 37 °C, samples were analyzed by flow cytometry.

[3] = system: BEAS-2B cells; assay: Anti-proliferative activity in normal lung epithelial cells BEAS-2B; format: cell-based
[4] = system: OVCAR3 cells; assay: Cell proliferation assay (CCK-8), OVCAR3; format: cell-based; settings: CCNE1-amplified ovarian cancer cells, 5-day incubation, mean ± SD, n = 3
Experimental: as §1

[5] = biological target: T1, PKMYT1 (Homo sapiens, UniProt Q99640); assay: PKMYT1 enzyme inhibition assay (LanthaScreen Eu kinase binding method); settings: mean of two separate experiments
T1 sequence (Q99640 1-499): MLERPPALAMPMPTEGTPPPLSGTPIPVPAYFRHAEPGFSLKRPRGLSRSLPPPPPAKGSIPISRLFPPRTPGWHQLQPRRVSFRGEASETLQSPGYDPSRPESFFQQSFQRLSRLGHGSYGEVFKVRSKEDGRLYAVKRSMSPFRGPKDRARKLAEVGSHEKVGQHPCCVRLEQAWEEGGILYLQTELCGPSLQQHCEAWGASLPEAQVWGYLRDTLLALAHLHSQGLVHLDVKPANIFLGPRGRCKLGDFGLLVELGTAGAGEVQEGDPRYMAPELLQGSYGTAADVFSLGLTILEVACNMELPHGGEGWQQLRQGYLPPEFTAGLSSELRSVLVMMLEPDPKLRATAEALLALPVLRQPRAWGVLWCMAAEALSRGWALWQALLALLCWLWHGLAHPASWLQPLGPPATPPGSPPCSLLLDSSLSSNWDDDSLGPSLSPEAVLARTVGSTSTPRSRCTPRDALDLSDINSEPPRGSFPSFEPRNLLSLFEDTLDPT
Experimental: The PKMYT1 kinase assay was conducted with the LanthaScreen™ Eu kinase binding method, as provided by Thermo Fisher Scientific (Waltham, MA, USA). Initially, compounds were prepared at a concentration of 4 mM in DMSO and subsequently diluted to various concentrations in 1X buffer. […] The plate was then incubated in the dark at 25 °C for 1 h, and fluorescence signals were recorded at 665 nm and 615 nm.

[6] = system: OVCAR3 cells; assay: Cell cloning (colony formation) assay; format: cell-based; settings: OVCAR3, 14 days of incubation, varying concentrations
Experimental: OVCAR3 cells (4 × 10^3/well) were seeded into 6-well plates and incubated for 24 h at 37 °C in a 5% CO2 atmosphere. Compound MY-14 was then added at varying concentrations, followed by a 14-day incubation period. Subsequently, cells were fixed with a 4% paraformaldehyde solution and stained using crystal violet solution, after which colonies were quantified using ImageJ 1.54 software.

[7] = system: A549 cells; assay: Anti-proliferative activity in low-expressing CCNE1 cells A549; format: cell-based
[8] = system: HCC1569 cells; assay: Cell apoptosis assay (Annexin V-FITC/PI flow cytometry); format: cell-based; parameters: Q1 / Q2 / Q3 / Q4: unit not given here
Experimental: HCC1569 cells (1 × 10^5/well) were seeded in 6-well plates and cultured for 24 h at 37 °C, 5% CO2. MY-14 at varying concentrations were added, followed by 5-day incubation. Cells were trypsinized and pelleted by centrifugation. Subsequent analysis was performed per the Medilunbio kit protocol: staining was conducted with propidium iodide (PI) and Annexin V-FITC. After 15 min incubation, samples were analyzed by flow cytometry.

CCOP(=O)(OCC)c1ccc(Nc2ncc(C(=O)Nc3c(C)ccc(O)c3C)c(N)n2)cc1 [MY-14]
IC50 [1]: 1060 ± 180 nM
IC50 ([1]; Homo sapiens, HCC1569, 120 h): 1020 nM
cell-cycle arrest (in words) [2]: arrested cell-cycle progression at the S-phase; also recorded: G1/S phase cell-cycle arrest
distribution of G2/M-phase cells (in words) [2]: no significant impact
proportion of G1-phase cells (in words) [2]: reducing the proportion of G1-phase cells
proportion of S-phase cells (in words) [2]: concentration-dependent increase in the proportion of S-phase cells
cytotoxicity (in words) ([3]; BEAS-2B lung epithelial cells): did not exhibit cytotoxicity; also recorded: reduced cytotoxicity
IC50 ([3]; Homo sapiens, BEAS-2B, lung epithelial cells, mean ± SD, n = 3): > 8000 nM
IC50 [4]: 800 ± 70 nM
IC50 ([4]; Homo sapiens, OVCAR-3, 120 h): 820 nM
IC50 [5]: 2.6 nM
colony formation (in words) [6]: inhibited colony formation in a dose-dependent manner
cytotoxicity (in words) ([7]; A549, CCNE1-low): did not exhibit cytotoxicity; also recorded: reduced cytotoxicity
IC50 ([7]; Homo sapiens, A549, lung cancer cells, low CCNE1 expression, mean ± SD, n = 3): > 8000 nM
apoptosis induction (in words) ([8]; HCC1569): induced apoptosis in a concentration-dependent manner; also recorded: induced apoptosis-mediated cell death
Q1 ([8]; HCC1569, 0.5 μM): 4.66
Q2 ([8]; HCC1569, 0.5 μM): 0.51
Q3 ([8]; HCC1569, 0.5 μM): 18.6
Q4 ([8]; HCC1569, 0.5 μM): 76.2
Q1 ([8]; HCC1569, 1.0 μM): 3.91
Q2 ([8]; HCC1569, 1.0 μM): 0.20
Q3 ([8]; HCC1569, 1.0 μM): 21.2
Q4 ([8]; HCC1569, 1.0 μM): 74.7
Q1 ([8]; HCC1569, 2.0 μM): 4.24
Q2 ([8]; HCC1569, 2.0 μM): 1.07
Q3 ([8]; HCC1569, 2.0 μM): 40.4
Q4 ([8]; HCC1569, 2.0 μM): 54.3
Q1 ([8]; HCC1569, 4.0 μM): 4.11
Q2 ([8]; HCC1569, 4.0 μM): 1.14
Q3 ([8]; HCC1569, 4.0 μM): 46.3
Q4 ([8]; HCC1569, 4.0 μM): 48.5
maximal apoptotic rate ([8]; HCC1569, 5-day incubation): 47.44%

Source: publication PMC12467068, “Design, Synthesis, and Computational Insights into PKMYT1 Inhibitors for the Treatment of Breast Cancer” (Biomedicines, 2025)
